How the values were obtained:
PAK5 = PAK5 (Homo sapiens, UniProt Q9P286); assay: Selectivity screen PAK5; type: biochemical; conditions: 1 µM inhibitor, mean
Protocol: (§1) For the in vitro kinase assay, JAK3 (5–20 mU diluted in 50 mM Tris pH 7.5, 0.1 mM EGTA, 0.05% β-mercaptoethanol, 1 mg/ml BSA) was assayed against PDKtide ([…]) in a final volume of 25.5 µl containing 50 mM Tris pH 7.5, 0.1 mM EGTA, 0.05% β-mercaptoethanol, 100 µM substrate peptide, 10 mM magnesium acetate and 0.02 mM [33P-γ-ATP] (50–1000 cpm/pmole) and incubated for 30 min at room temperature. Assays were started by the addition of the ATP and stopped by addition of 5 µl of 0.5 M (3%) orthophosphoric acid and then harvested onto P81 Unifilter plates with a wash buffer of 50 mM orthophosphoric acid. To determine the Km for ATP, assays were run using 1, 5, 10, 20, 50, 100, 200, 400, 500 μM ATP and Km derived by non-linear regression fitting to the Michaelis–Menten equation v = Vmax[S]/(Km + [S]). IC50 values for inhibitors via non-linear regression using a parameter model: Y = Bottom + (Top–Bottom)/(1 + (IC50/X)^HillSlope). Non-linear regression was carried out in Prism (version 8). In vitro selectivity screen was carried out as described previously.

PIM3 = PIM3 (Homo sapiens, UniProt Q86V86); assay: Selectivity screen PIM3; type: biochemical; conditions: 1 µM inhibitor, mean
Protocol: as §1

DYRK1A = DYRK1A (Homo sapiens, UniProt Q13627); assay: Selectivity screen DYRK1A; type: biochemical; conditions: 1 µM inhibitor, mean
Protocol: as §1

CDK9-Cyclin T1 = CDK9-Cyclin T1 (Homo sapiens, UniProt P50750); assay: Selectivity screen CDK9-Cyclin T1; type: biochemical; conditions: 1 µM inhibitor, mean
Protocol: as §1

CAMK1 = CAMK1 (Homo sapiens, UniProt Q14012); assay: Selectivity screen CAMK1; type: biochemical; conditions: 1 µM inhibitor, mean
Protocol: as §1

PIM2 = PIM2 (Homo sapiens, UniProt Q9P1W9); assay: Selectivity screen PIM2; type: biochemical; conditions: 1 µM inhibitor, mean
Protocol: as §1

Lck = Lck (Homo sapiens, UniProt P06239); assay: Selectivity screen Lck; type: biochemical; conditions: 1 µM inhibitor, mean
Protocol: as §1

MARK3 = MARK3 (Homo sapiens, UniProt P27448); assay: Selectivity screen MARK3; type: biochemical; conditions: 1 µM inhibitor, mean
Protocol: as §1

EPH-B4 = EPH-B4 (Homo sapiens, UniProt P54760); assay: Selectivity screen EPH-B4; type: biochemical; conditions: 1 µM inhibitor, mean
Protocol: as §1

SmMLCK = SmMLCK (Homo sapiens, UniProt Q15746); assay: Selectivity screen SmMLCK; type: biochemical; conditions: 1 µM inhibitor, mean
Protocol: as §1

MARK4 = MARK4 (Homo sapiens, UniProt Q96L34); assay: Selectivity screen MARK4; type: biochemical; conditions: 1 µM inhibitor, mean
Protocol: as §1

MINK1 = MINK1 (Homo sapiens, UniProt Q8N4C8); assay: Selectivity screen MINK1; type: biochemical; conditions: 1 µM inhibitor, mean
Protocol: as §1

p38a MAPK = p38a MAPK (Homo sapiens, UniProt Q16539); assay: Selectivity screen p38a MAPK; type: biochemical; conditions: 1 µM inhibitor, mean
Protocol: as §1

p38g MAPK = p38g MAPK (Homo sapiens, UniProt P53778); assay: Selectivity screen p38g MAPK; type: biochemical; conditions: 1 µM inhibitor, mean
Protocol: as §1

PRK2 = PRK2 (Homo sapiens, UniProt Q16513); assay: Selectivity screen PRK2; type: biochemical; conditions: 1 µM inhibitor, mean
Protocol: as §1

ZAP70 = ZAP70 (Homo sapiens, UniProt P43403); assay: Selectivity screen ZAP70; type: biochemical; conditions: 1 µM inhibitor, mean
Protocol: as §1

TTK = TTK (Homo sapiens, UniProt P33981); assay: Selectivity screen TTK; type: biochemical; conditions: 1 µM inhibitor, mean
Protocol: as §1

CK2 = CK2 (Homo sapiens, UniProt P68400); assay: Selectivity screen CK2; type: biochemical; conditions: 1 µM inhibitor, mean
Protocol: as §1

p38b MAPK = p38b MAPK (Homo sapiens, UniProt Q15759); assay: Selectivity screen p38b MAPK; type: biochemical; conditions: 1 µM inhibitor, mean
Protocol: as §1

LKB1 = LKB1 (Homo sapiens, UniProt Q15831); assay: Selectivity screen LKB1; type: biochemical; conditions: 1 µM inhibitor, mean
Protocol: as §1

PAK6 = PAK6 (Homo sapiens, UniProt Q9NQU5); assay: Selectivity screen PAK6; type: biochemical; conditions: 1 µM inhibitor, mean
Protocol: as §1

CLK2 = CLK2 (Homo sapiens, UniProt P49760); assay: Selectivity screen CLK2; type: biochemical; conditions: 1 µM inhibitor, mean
Protocol: as §1

AMPK = assay: Selectivity screen AMPK; type: biochemical; conditions: 1 µM inhibitor, mean
YES1 = YES1 (Homo sapiens, UniProt P07947); assay: Selectivity screen YES1; type: biochemical; conditions: 1 µM inhibitor, mean
Protocol: as §1

[1] = test system: GM-CSF induced STAT5 phosphorylation in BMDMs; design: method as in PMID 26258521; conditions: 5 μM; cited from earlier work
MLK3 = MLK3 (Homo sapiens, UniProt Q16584); assay: Selectivity screen MLK3; type: biochemical; conditions: 1 µM inhibitor, mean
Protocol: as §1

TrkA = TrkA (Homo sapiens, UniProt P04629); assay: Selectivity screen TrkA; type: biochemical; conditions: 1 µM inhibitor, mean
Protocol: as §1

TSSK1 = TSSK1 (Homo sapiens, UniProt Q9BXA7); assay: Selectivity screen TSSK1; type: biochemical; conditions: 1 µM inhibitor, mean
Protocol: as §1

PKA = PKA (Homo sapiens, UniProt P17612); assay: Selectivity screen PKA; type: biochemical; conditions: 1 µM inhibitor, mean
Protocol: as §1

JNK3 = JNK3 (Homo sapiens, UniProt P53779); assay: Selectivity screen JNK3; type: biochemical; conditions: 1 µM inhibitor, mean
Protocol: as §1

DYRK3 = DYRK3 (Homo sapiens, UniProt O43781); assay: Selectivity screen DYRK3; type: biochemical; conditions: 1 µM inhibitor, mean
Protocol: as §1

SIK2 = SIK2 (Homo sapiens, UniProt Q9H0K1); assay: Selectivity screen SIK2; type: biochemical; conditions: 1 µM inhibitor, mean
Protocol: as §1

SIK3 = SIK3 (Homo sapiens, UniProt Q9Y2K2); assay: Selectivity screen SIK3; type: biochemical; conditions: 1 µM inhibitor, mean
Protocol: as §1

JAK2 = conditions: ATP 4 μM; read-out: In vitro IC50 JAK2; cited from earlier work
JAK3 = conditions: ATP 4 μM; read-out: In vitro IC50 JAK3; cited from earlier work
PKBa = PKBa (Homo sapiens, UniProt P31749); assay: Selectivity screen PKBa; type: biochemical; conditions: 1 µM inhibitor, mean; read-out: activity remaining in the presence of the inhibitor: PKBa
Protocol: as §1

TrkA, sequence (P04629 33-796): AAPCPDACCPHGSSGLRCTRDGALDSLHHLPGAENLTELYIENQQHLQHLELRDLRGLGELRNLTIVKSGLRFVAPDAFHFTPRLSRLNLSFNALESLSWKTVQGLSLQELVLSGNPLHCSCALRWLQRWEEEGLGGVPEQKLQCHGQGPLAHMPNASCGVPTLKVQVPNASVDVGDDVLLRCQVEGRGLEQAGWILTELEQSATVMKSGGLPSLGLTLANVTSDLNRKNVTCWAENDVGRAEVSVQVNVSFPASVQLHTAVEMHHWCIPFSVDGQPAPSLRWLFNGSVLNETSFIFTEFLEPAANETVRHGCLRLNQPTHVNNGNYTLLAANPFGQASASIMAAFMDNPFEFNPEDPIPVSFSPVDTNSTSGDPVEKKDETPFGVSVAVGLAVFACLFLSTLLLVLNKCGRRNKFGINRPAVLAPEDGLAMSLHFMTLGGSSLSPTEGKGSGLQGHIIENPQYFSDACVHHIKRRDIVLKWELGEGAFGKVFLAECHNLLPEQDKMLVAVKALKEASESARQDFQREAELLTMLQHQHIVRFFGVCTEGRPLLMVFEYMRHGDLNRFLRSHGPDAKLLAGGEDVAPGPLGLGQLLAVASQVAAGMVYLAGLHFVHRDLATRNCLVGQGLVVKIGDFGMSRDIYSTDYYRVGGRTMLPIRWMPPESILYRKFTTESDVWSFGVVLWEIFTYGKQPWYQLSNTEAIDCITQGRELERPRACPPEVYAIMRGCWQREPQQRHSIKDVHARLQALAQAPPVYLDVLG
EPH-B4, sequence (P54760 16-987): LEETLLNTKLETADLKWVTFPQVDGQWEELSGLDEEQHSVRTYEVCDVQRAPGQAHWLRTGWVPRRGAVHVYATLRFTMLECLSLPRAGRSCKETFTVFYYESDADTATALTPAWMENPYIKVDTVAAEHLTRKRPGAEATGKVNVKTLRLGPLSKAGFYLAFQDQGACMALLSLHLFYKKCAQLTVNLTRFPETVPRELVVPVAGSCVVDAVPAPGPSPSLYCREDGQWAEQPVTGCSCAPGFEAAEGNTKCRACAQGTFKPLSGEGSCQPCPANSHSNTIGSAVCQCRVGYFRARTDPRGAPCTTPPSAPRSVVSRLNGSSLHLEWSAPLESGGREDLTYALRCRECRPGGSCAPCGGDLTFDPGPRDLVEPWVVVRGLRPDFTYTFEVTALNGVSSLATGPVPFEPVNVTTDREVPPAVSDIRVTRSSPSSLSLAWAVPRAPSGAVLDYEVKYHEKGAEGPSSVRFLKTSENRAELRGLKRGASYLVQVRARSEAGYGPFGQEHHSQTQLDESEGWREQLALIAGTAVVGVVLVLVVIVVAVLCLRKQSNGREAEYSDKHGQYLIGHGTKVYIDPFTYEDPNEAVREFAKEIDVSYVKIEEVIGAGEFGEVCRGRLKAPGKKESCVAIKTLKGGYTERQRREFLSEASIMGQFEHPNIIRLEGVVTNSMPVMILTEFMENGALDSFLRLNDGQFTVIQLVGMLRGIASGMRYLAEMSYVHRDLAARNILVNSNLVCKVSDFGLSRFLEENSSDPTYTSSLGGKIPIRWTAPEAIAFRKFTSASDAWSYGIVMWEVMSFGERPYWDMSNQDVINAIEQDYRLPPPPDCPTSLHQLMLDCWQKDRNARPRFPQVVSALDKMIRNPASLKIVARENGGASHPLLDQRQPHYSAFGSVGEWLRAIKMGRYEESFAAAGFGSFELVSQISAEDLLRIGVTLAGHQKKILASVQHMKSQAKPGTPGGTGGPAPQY
CLK2, sequence (P49760 whole entry): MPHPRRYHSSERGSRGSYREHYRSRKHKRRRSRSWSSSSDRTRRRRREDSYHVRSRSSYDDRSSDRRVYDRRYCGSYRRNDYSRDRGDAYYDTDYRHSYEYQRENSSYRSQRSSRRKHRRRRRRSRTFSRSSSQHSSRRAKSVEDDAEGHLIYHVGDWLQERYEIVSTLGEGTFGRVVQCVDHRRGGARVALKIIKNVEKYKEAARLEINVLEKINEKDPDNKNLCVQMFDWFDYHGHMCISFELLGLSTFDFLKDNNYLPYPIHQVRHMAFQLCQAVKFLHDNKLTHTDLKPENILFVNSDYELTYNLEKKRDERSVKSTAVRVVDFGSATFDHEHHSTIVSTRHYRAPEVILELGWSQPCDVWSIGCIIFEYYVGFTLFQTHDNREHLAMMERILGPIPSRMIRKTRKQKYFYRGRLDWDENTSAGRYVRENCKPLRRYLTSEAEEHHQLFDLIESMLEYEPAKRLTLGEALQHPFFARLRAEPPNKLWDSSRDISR
LKB1, sequence (Q15831 whole entry): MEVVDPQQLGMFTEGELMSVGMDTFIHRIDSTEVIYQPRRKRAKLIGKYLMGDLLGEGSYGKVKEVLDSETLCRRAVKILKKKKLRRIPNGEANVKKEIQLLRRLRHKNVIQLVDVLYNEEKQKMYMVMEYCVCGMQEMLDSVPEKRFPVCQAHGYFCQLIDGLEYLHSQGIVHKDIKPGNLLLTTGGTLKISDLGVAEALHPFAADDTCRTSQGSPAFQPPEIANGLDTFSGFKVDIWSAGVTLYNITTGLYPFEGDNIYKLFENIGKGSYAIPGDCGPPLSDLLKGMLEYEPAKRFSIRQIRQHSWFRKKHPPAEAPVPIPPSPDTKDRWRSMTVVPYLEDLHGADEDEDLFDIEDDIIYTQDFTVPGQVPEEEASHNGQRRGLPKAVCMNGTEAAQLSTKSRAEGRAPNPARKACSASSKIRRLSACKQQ
LKB1, sequence (Q7RTN6 whole entry partner): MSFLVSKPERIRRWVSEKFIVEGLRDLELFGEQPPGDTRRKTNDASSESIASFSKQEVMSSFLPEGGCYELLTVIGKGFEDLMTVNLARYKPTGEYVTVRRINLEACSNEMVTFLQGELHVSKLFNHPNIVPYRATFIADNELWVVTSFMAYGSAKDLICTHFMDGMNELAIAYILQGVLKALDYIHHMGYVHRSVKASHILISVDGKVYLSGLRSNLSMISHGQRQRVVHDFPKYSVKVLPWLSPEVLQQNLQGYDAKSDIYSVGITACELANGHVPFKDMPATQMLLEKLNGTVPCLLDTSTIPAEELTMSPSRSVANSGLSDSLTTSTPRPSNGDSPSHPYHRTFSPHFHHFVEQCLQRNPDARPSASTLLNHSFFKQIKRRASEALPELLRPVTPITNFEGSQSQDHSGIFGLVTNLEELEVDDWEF
LKB1, sequence (Q9Y376 whole entry partner): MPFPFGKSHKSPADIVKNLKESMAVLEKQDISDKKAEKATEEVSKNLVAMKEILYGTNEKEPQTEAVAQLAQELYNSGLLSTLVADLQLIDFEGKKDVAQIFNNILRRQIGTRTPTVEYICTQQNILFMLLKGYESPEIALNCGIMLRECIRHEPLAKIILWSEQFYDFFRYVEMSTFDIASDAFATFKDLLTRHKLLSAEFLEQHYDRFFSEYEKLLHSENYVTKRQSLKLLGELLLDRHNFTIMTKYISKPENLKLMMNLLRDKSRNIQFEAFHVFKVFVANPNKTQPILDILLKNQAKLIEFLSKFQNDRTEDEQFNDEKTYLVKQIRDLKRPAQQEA
DYRK3, sequence (O43781 whole entry): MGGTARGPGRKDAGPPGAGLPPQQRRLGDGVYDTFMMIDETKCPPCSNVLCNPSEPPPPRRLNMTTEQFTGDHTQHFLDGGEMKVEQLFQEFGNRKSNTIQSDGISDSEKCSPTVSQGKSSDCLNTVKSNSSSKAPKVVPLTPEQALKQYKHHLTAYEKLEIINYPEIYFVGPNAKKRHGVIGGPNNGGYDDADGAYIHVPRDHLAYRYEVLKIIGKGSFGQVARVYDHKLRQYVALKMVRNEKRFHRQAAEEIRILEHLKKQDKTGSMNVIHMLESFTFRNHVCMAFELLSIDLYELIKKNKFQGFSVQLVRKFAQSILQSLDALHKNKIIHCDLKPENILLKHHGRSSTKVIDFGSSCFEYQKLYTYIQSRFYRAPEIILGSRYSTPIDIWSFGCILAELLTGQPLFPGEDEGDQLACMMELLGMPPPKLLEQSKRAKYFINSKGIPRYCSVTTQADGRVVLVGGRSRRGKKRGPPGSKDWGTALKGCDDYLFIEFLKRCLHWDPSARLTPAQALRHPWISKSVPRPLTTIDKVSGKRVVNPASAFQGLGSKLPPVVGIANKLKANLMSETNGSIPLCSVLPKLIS
JNK3, sequence (P53779 whole entry): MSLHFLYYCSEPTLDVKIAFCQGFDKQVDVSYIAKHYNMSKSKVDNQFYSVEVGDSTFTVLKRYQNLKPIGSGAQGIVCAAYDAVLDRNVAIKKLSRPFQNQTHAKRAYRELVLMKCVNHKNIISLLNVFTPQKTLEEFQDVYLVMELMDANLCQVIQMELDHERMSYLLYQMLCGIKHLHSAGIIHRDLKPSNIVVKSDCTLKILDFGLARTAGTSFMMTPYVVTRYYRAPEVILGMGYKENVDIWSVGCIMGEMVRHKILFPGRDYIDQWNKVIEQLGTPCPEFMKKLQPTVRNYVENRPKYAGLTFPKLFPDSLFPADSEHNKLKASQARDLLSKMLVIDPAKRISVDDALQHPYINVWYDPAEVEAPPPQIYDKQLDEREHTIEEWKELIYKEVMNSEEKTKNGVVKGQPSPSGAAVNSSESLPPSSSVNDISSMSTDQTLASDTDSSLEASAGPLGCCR
p38g MAPK, sequence (P53778 whole entry): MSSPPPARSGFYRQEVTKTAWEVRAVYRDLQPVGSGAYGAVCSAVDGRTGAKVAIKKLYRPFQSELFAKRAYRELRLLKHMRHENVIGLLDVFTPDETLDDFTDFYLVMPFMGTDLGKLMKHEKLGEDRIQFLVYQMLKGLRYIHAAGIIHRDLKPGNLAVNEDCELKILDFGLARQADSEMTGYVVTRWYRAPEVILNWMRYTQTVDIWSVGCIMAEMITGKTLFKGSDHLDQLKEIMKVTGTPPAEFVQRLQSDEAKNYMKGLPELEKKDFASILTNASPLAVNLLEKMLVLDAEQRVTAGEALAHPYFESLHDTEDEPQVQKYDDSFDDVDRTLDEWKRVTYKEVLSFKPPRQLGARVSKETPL

SMILES | activity remaining in the presence of the inhibitor: PAK5 (PAK5) | activity remaining in the presence of the inhibitor: PIM3 (PIM3) | activity remaining in the presence of the inhibitor: DYRK1A (DYRK1A) | activity remaining in the presence of the inhibitor: CDK9-Cyclin T1 (CDK9-Cyclin T1) | activity remaining in the presence of the inhibitor: CAMK1 (CAMK1) | activity remaining in the presence of the inhibitor: PIM2 (PIM2) | activity remaining in the presence of the inhibitor: Lck (Lck) | activity remaining in the presence of the inhibitor: MARK3 (MARK3) | activity remaining in the presence of the inhibitor: EPH-B4 (EPH-B4) | activity remaining in the presence of the inhibitor: SmMLCK (SmMLCK) | activity remaining in the presence of the inhibitor: MARK4 (MARK4) | activity remaining in the presence of the inhibitor: MINK1 (MINK1) | activity remaining in the presence of the inhibitor: p38a MAPK (p38a MAPK) | activity remaining in the presence of the inhibitor: p38g MAPK (p38g MAPK) | activity remaining in the presence of the inhibitor: PRK2 (PRK2) | activity remaining in the presence of the inhibitor: ZAP70 (ZAP70) | activity remaining in the presence of the inhibitor: TTK (TTK) | activity remaining in the presence of the inhibitor: CK2 (CK2) | activity remaining in the presence of the inhibitor: p38b MAPK (p38b MAPK) | activity remaining in the presence of the inhibitor: LKB1 (LKB1) | other results
C=CC(=O)Nc1cccc(CNc2nc(Nc3ccc(N4CCN(C)CC4)cc3OC)ncc2Cl)c1 [TL6-144] | 94 | 100 | 90 | 95 | 68 | 97 | 77 | 48 | 83 | 62 | 76 | 80 | 96 | 88 | 78 | 86 | 96 | 103 | 93 | 91 | activity remaining in the presence of the inhibitor: PAK6 (PAK6): 77; activity remaining in the presence of the inhibitor: CLK2 (CLK2): 62; activity remaining in the presence of the inhibitor: AMPK (AMPK): 91; activity remaining in the presence of the inhibitor: YES1 (YES1): 89; inhibition of GM-CSF signaling in macrophages [1]: does not inhibit; activity remaining in the presence of the inhibitor: MLK3 (MLK3): 31; activity remaining in the presence of the inhibitor: TrkA (TrkA): 59; activity remaining in the presence of the inhibitor: TSSK1 (TSSK1): 34; activity remaining in the presence of the inhibitor: PKA (PKA): 104; activity remaining in the presence of the inhibitor: JNK3 (JNK3): 87; activity remaining in the presence of the inhibitor: DYRK3 (DYRK3): 95; activity remaining in the presence of the inhibitor: SIK2 (SIK2): 58; activity remaining in the presence of the inhibitor: SIK3 (SIK3): 89
C=CC(=O)N1C[C@H](Nc2ncnc3[nH]ccc23)CC[C@@H]1C [PF-06651600, 1-((2S,5R)-5-((7H-Pyrrolo[2,3-d]pyrimidin-4-yl)amino)-2-methylpiperidin-1-yl)prop-2-en-1-one, reference compound] |  |  |  |  |  |  |  |  |  |  |  |  |  |  |  |  |  |  |  |  | IC50 (JAK2): > 10000 nM; IC50 (JAK3): […]
C=CC(=O)Nc1cccc(CNc2nc(Nc3ccc(N4CCOCC4)cc3)ncc2Cl)c1 [TL8-52] | 90 | 90 | 100 | 80 | 97 | 100 | 73 | 21 | 104 | 98 | 28 | 80 | 119 | 93 | 52 | 77 | 49 | 103 | 96 | 132 | activity remaining in the presence of the inhibitor: PAK6 (PAK6): 99; activity remaining in the presence of the inhibitor: CLK2 (CLK2): 29; activity remaining in the presence of the inhibitor: AMPK (AMPK): 80; activity remaining in the presence of the inhibitor: YES1 (YES1): 47; activity remaining in the presence of the inhibitor: MLK3 (MLK3): 3; activity remaining in the presence of the inhibitor: TrkA (TrkA): 23; remaining activity at 1 µM (PKBa): 100%; activity remaining in the presence of the inhibitor: TSSK1 (TSSK1): 57; activity remaining in the presence of the inhibitor: PKA (PKA): 74; activity remaining in the presence of the inhibitor: JNK3 (JNK3): 69; activity remaining in the presence of the inhibitor: DYRK3 (DYRK3): 95; activity remaining in the presence of the inhibitor: SIK2 (SIK2): 31; activity remaining in the presence of the inhibitor: SIK3 (SIK3): 59

— PMC8115619, “Generation of a chemical genetic model for JAK3” (Scientific Reports, 2021)
